For series [1], the system named is A549 human lung cancer cells. Nature of the series: Annexin V / propidium iodide apoptosis staining. It counts as cell-based. Details: dose or concentration left out as unconfirmed. The method, then: A549 human lung cancer cells in a 96-well plate (Costar 3603, 5,000/well) were treated with either A) DMSO as a control; B) […] (−)-trans-3-(5,6-dihydro-4H-pyrrolo[3,2,1-ij]quinolin-1-yl)-4-(1H-indol-3-yl)pyrrolidine-2,5-dione for 38 hours before addition of 1:200 fluorescent Annexin V (green) and 1:500 Propidium iodide (magenta, final concentration of […]). The labeling procedure was allowed to process at 37° C. for 20 minutes followed by image acquisition and analysis using an IC100 Image Cytometer (Beckman Coulter, Inc) with 10× amplification. To determine whether (−)-trans-3-(5,6-dihydro-4H-pyrrolo[3,2,1-ij]quinolin-1-yl)-4-(1H-indol-3-yl)pyrrolidine-2,5-dione works primarily through a cytostatic or apoptotic mechanism, cancer cells exposed to (−)-trans-3-(5,6-dihydro-4H-pyrrolo[3,2,1-ij]quinolin-1-yl)-4-(1H-indol-3-yl)pyrrolidine-2,5-dione were stained with fluorescently labeled Annexin V (green fluorescence) and propidium iodide (bright magenta fluorescence). Annexin V is a well-validated reagent that specifically binds with high affinity to externalized membrane phosphatidylserine, an early marker of the onset of apoptosis, while propidium iodide is a marker for dead cells. […] (See, FIG. 6)

Series [2] has as its system MDA-MB-231 breast cancer cells. Description: Cancer cell invasion assay (inserts). It is filed as cell-based. The conditions noted are these: Homo sapiens, 24 hours pretreatment, 24 hours invasion, estimated, read-out: IC50, inhibition of invasive phenotype. The procedure:
MDA-MB-231 cells were pretreated with indicated concentrations of (−)-trans-3-(5,6-dihydro-4H-pyrrolo[3,2,1-ij]quinolin-1-yl)-4-(1H-indol-3-yl)pyrrolidine-2,5-dione for 24 hours. 300 μl of each cell suspension (at a concentration 0.5×10^6 cells/mL in serum free medium) was placed in individual inserts and incubated for 24 hours at 37° C. The bottom wells housing the inserts contained […] of 10% FBS containing medium. […] Each insert was then transferred to a clean well containing cell stain solution and incubated for 10 minutes at room temperature. The bottom of the insert was destained by incubating in extraction solution and OD was measured at 560 nm. (−)-trans-3-(5,6-dihydro-4H-pyrrolo[3,2,1-ij]quinolin-1-yl)-4-(1H-indol-3-yl)pyrrolidine-2,5-dione inhibited the migration across interstices in confluent cultures of MDA-MB-231 cancer cells. The data represent the mean of two independent experiments. (See FIG. 7)

For series [3], the system named is MDA-MB-231 human breast cancer cells. Nature of the series: Human breast cancer xenograft. It is filed as in vivo, female athymic nude mice. The procedure:
MDA-MB-231 human breast cancer cells were inoculated subcutaneously into female athymic nude mice (8.0×10^6 cells/mouse) and allowed to form palpable tumors. Once the tumors reached approximately 60 mm^3, the animals were treated orally with (−)-trans-3-(5,6-dihydro-4H-pyrrolo[3,2,1-ij]quinolin-1-yl)-4-(1H-indol-3-yl)pyrrolidine-2,5-dione at 200 mg/kg or vehicle control daily (5 consecutive days, followed by a 2 day dosing holiday). (−)-trans-3-(5,6-dihydro-4H-pyrrolo[3,2,1-ij]quinolin-1-yl)-4-(1H-indol-3-yl)pyrrolidine-2,5-dione was formulated in PEG 400:20% Vitamin E TPGS (60:40). The animals received a total of 20 doses of (−)-trans-3-(5,6-dihydro-4H-pyrrolo[3,2,1-ij]quinolin-1-yl)-4-(1H-indol-3-yl)pyrrolidine-2,5-dione or vehicle control. Tumors were measured throughout treatment and the post-treatment observation period. Each point represents the mean±SEM of ten tumors. (See, FIG. 8)

In another series the target is c-Met (Homo sapiens, UniProt P08581). Nature of the series: Kinase inhibition, c-Met. It counts as biochemical. The conditions noted are these: read-out: inhibitory constant (Ki). The procedure: (§1) (−)-trans-3-(5,6-dihydro-4H-pyrrolo[3,2,1-ij]quinolin-1-yl)-4-(1H-indol-3-yl)pyrrolidine-2,5-dione was assessed for its activity to inhibit a large panel (n=230) of human kinases.

The target of another series is PAK3 (Homo sapiens, UniProt O75914). Description: Kinase panel inhibition, PAK3. It is filed as biochemical. The method, then: as §1

The structures appear in SMILES notation.

Sequence of PAK3 (O75914 whole entry): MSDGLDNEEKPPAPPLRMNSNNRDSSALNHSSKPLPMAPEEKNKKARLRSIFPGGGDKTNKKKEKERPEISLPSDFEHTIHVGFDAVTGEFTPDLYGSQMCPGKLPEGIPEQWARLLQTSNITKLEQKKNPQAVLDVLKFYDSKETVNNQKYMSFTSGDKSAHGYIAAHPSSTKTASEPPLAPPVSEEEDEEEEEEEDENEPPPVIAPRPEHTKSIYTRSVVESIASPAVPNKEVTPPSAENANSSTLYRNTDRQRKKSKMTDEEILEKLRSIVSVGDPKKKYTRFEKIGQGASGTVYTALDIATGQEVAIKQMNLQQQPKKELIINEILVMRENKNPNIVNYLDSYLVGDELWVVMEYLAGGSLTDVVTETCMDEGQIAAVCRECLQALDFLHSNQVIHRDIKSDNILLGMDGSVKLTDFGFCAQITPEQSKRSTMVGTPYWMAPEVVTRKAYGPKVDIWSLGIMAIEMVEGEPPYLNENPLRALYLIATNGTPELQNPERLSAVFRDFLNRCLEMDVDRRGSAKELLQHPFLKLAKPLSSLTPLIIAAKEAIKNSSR
Sequence of c-Met (P08581 25-1390): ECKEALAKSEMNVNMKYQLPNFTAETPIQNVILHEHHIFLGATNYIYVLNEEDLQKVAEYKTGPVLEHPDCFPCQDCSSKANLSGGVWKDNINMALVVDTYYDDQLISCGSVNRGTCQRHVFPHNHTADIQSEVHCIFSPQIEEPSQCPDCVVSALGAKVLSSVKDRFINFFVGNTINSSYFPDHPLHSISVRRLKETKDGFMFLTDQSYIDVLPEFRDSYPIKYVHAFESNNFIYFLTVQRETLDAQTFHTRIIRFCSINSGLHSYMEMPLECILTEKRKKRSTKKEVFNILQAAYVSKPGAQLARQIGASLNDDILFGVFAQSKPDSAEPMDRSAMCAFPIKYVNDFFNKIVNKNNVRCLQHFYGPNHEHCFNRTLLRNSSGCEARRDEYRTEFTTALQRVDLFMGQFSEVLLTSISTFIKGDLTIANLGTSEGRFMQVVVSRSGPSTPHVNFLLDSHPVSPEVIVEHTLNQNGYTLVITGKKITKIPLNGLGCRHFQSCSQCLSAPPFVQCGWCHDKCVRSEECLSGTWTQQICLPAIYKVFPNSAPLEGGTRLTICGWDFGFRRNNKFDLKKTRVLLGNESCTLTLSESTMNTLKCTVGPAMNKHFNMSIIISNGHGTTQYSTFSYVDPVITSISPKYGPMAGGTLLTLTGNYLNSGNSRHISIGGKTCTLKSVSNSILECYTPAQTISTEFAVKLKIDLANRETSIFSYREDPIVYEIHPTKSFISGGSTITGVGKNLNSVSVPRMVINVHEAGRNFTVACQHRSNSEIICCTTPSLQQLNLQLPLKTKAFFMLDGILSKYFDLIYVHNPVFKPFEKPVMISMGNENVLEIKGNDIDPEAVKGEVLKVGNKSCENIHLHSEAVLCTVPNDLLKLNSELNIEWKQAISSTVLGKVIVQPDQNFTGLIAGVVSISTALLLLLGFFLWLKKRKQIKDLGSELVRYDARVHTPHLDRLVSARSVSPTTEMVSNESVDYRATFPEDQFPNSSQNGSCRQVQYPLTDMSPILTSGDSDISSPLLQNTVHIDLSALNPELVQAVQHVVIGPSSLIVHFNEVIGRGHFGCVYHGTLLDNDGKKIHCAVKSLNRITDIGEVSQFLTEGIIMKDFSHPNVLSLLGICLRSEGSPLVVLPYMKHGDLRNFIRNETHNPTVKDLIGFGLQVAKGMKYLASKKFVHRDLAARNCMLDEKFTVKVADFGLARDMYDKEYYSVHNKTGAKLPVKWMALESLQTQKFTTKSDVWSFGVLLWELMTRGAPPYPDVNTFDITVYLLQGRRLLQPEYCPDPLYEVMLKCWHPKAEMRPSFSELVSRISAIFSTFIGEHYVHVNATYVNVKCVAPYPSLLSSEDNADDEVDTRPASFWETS

One may read the IC50 as the concentration needed to halve the response being measured. In general, Ki refers to a dissociation constant, usually derived from enzyme kinetics or from competition with a known ligand. As to `O=C1NC(=O)[C@@H](c2cn3c4c(cccc24)CCC3)[C@@H]1c1c[nH]c2ccccc12` (single isomer, unassigned) [(−)-trans-3-(5,6-dihydro-4H-pyrrolo[3,2,1-ij]quinolin-1-yl)-4-(1H-indol-3-yl)pyrrolidine-2,5-dione], in series [1], the “apoptosis (Annexin V staining)” value was “induced cells to undergo apoptosis”; the “cells co-stained with both Annexin V and propidium iodide (dead cells)” value is 10-20%. The IC50 in series [2] was around 500 nM. Also, the Tumor growth inhibition in series [3] (200 mg/kg orally, daily 5 days on / 2 days off, 20 doses, p=0.009) came to 79%. In addition, in series [3] (oral administration at 200 mg/kg), the “change in body weight” value is given as “no significant change in body weight”. Moreover, the Ki at c-Met is around 360 nM. At PAK3, this molecule gave a 50% inhibitory concentration (IC50) of around 6600 nM.

Source of the values: patent US8871933B2, “Purified pyrroloquinolinyl-pyrrolidine-2,5-dione compositions and methods for preparing and using same” (ArQule, Inc., priority 2009, dated 2014).
